In patent US12281149B2, “Modulators of G-protein coupled receptors” (priority 2021, dated 2025):
pEC50: −log10 of the molar value. Where two headings read alike, the source gives them in different places. *1 amine or outer side, *2 acyl side, *3 side chain or, on linkers, in order; H or OH if unused. Where a SMILES comes first, the peptide text is derived from it. Side-chain parts run from the residue outwards. [ ]: non-standard residue; d: D form. The star is where a group is joined. Isobutyryl(2-(3-CN-5-F-Ph)) = CC(C)(C(=O)*)c1cc(F)cc(C#N)c1; C20 diacid = O=C(O)CCCCCCCCCCCCCCCCCCC(=O)*; γGlu = O=C(O)[C@H](CCC(=O)[*:2])N[*:1]; NH(3-MeOPh) = COc1cccc(N*)c1; NH(2-ClPh) = Clc1ccccc1N*; X10 = Clc1cccc(N*)c1Cl; AEEA = NCCOCCOCC(=O)O; Aib = CC(C)(N)C(=O)O; CO = O=C([*:1])[*:2]; X12 = Fc1cccc(N*)c1; GABA = NCCCC(=O)O; βAla = NCCC(=O)O

Columns and labels:
Assay type in all cases: cell-based
GLP-1 receptor [1] = target: T1, GLP-1 receptor (Homo sapiens, UniProt P43220); experiment: HitHunter cAMP assay, GLP-1 receptor; conditions: for pEC50: CHO cells stably expressing human GLP-1 receptor, cAMP accumulation, 30 min, read-out: EC50 GLP-1R; for Emax: read-out: Emax GLP-1R
T1 sequence (P43220 24-463): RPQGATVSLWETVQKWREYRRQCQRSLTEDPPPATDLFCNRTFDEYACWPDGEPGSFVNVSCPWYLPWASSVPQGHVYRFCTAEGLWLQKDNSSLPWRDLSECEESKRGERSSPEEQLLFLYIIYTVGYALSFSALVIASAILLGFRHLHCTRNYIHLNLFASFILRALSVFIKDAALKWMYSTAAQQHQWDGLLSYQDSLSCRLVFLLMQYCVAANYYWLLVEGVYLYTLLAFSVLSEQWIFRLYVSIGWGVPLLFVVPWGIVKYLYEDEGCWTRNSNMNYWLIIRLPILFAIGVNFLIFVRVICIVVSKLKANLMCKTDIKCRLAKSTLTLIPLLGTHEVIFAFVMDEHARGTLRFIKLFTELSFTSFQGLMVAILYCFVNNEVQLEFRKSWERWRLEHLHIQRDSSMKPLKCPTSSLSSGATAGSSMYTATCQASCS

GIP receptor [2] = target: T2, GIP receptor (Homo sapiens, UniProt P48546); experiment: HitHunter cAMP assay, GIP receptor; conditions: for pEC50: CHO cells stably expressing GIP receptor, cAMP accumulation, 30 min, read-out: EC50 GIP-1R; for Emax: read-out: Emax GIP-1R
T2 sequence (P48546 22-466): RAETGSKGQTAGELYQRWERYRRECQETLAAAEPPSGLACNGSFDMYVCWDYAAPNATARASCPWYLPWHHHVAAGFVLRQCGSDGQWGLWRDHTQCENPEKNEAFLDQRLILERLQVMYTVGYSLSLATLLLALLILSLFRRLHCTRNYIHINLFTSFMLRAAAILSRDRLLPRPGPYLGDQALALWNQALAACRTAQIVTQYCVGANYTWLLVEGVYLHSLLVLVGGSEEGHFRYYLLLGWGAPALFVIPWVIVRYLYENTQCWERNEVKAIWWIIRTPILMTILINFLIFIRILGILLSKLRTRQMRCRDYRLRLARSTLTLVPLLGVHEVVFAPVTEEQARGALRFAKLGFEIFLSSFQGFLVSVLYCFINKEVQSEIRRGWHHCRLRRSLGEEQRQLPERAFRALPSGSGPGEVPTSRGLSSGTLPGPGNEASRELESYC

GIP receptor [3] = target: T2, GIP receptor; experiment: PathHunter β-arrestin assay, GIP receptor; parameters: host or cells: PathHunter CHO-K1 GIPR β-Arrestin Cell Line; conditions: β-arrestin-2 recruitment, PathHunter CHO-K1 GIPR β-Arrestin Cell Line, 90 min at 37° C.; normalized to GIP; read-out: GIPR β Arrestin EC50
GLP-1 receptor [4] = target: T1, GLP-1 receptor; experiment: PathHunter β-arrestin assay, GLP-1 receptor; parameters: host or cells: PathHunter CHO-K1 GLP1R β-Arrestin Cell Line; conditions: β-arrestin-2 recruitment, PathHunter CHO-K1 GLP1R β-Arrestin Cell Line, 90 min at 37° C.; normalized to GLP-1; read-out: GLP-1R β Arrestin EC50
[5] = CHO cells, cAMP, normalized to maximum signal from GLP-1 (high) and DMSO (low)
[6] = CHO cells, cAMP, normalized to maximum signal from GIP (high) and DMSO (low)

CC[C@H](C)[C@H](NC(=O)[C@H](CO)NC(=O)[C@H](Cc1ccc(O)cc1)NC(=O)[C@H](CC(=O)O)NC(=O)[C@H](CO)NC(=O)[C@@H](NC(=O)[C@H](Cc1ccccc1)NC(=O)[C@@H](NC(=O)CNC(=O)[C@H](CCC(=O)O)NC(=O)CCNC(=O)[C@]1(c2ccccc2)CNC(=O)C1)[C@@H](C)O)[C@@H](C)O)C(=O)N[C@@H](Cc1ccc(O)cc1)C(=O)N[C@@H](CC(C)C)C(=O)N[C@@H](CC(=O)O)C(=O)N[C@@H](CCCCN)C(=O)N[C@@H](CCC(N)=O)C(=O)N[C@@H](C)C(=O)N[C@@H](C)C(=O)NC(C)(C)C(=O)N[C@@H](CCC(=O)O)C(=O)N[C@@H](Cc1ccccc1)C(=O)N[C@H](C(=O)N[C@@H](CCCCNC(=O)COCCOCCNC(=O)COCCOCCNC(=O)CC[C@H](NC(=O)CCCCCCCCCCCCCCCCCCC(=O)O)C(=O)O)C(=O)N[C@@H](Cc1c[nH]c2ccccc12)C(=O)N[C@@H](CC(C)C)C(=O)N[C@@H](CC(C)C)C(=O)N[C@@H](C)C(=O)NCC(=O)NCC(=O)N1CCC[C@H]1C(=O)N[C@@H](CO)C(=O)N[C@@H](CO)C(=O)NCC(=O)N[C@@H](C)C(=O)N1CCC[C@H]1C(=O)N1CCC[C@H]1C(=O)N1CCC[C@H]1C(=O)N[C@@H](CO)C(N)=O)C(C)C (single isomer, unassigned) [Compound 102]
pEC50 (GLP-1 receptor [1]): 9.00 to 10.00
Emax (GLP-1 receptor [1]; [5]): 91%
pEC50 (GIP receptor [2]): 8.00 to 9.00
Emax (GIP receptor [2]; [6]): 101%
pEC50 (GIP receptor [3]): < 6.00
pEC50 (GLP-1 receptor [4]): < 6.00

CC[C@H](C)[C@H](NC(=O)[C@H](CC(C)C)NC(=O)[C@H](Cc1c[nH]c2ccccc12)NC(=O)[C@H](CCC(N)=O)NC(=O)[C@@H](NC(=O)[C@H](Cc1ccccc1)NC(=O)[C@H](C)NC(=O)[C@H](CCCCNC(=O)COCCOCCNC(=O)COCCOCCNC(=O)CC[C@H](NC(=O)CCCCCCCCCCCCCCCCCCC(=O)O)C(=O)O)NC(=O)[C@H](CCC(N)=O)NC(=O)[C@H](C)NC(=O)[C@@H](NC(=O)[C@H](CCCNC(=N)N)NC(=O)[C@H](CC(=O)O)NC(=O)[C@H](CC(C)C)NC(=O)C(C)(C)NC(=O)[C@@H](NC(=O)[C@H](CO)NC(=O)[C@H](Cc1ccc(O)cc1)NC(=O)[C@H](CC(=O)O)NC(=O)[C@H](CO)NC(=O)[C@@H](NC(=O)[C@H](Cc1ccccc1)NC(=O)[C@@H](NC(=O)CNC(=O)[C@H](CCC(=O)O)NC(=O)CCNC(=O)C(C)(C)c1cc(F)cc(C#N)c1)[C@@H](C)O)[C@@H](C)O)[C@@H](C)CC)[C@@H](C)CC)C(C)C)C(=O)N[C@@H](C)C(=O)NCC(=O)NCC(=O)N1CCC[C@H]1C(=O)N[C@@H](CO)C(=O)N[C@@H](CO)C(=O)NCC(=O)N[C@@H](C)C(=O)N1CCC[C@H]1C(=O)N1CCC[C@H]1C(=O)N1CCC[C@H]1C(=O)N[C@@H](CO)C(N)=O [Compound 242] ({Isobutyryl(2-(3-CN-5-F-Ph))-βAla}-EGTFTSDYSI[Aib]LDRIAQK([AEEA-AEEA-γGlu-C20 diacid])AFVQWLIAGGPSSGAPPPS-NH2)
pEC50 (GLP-1 receptor [1]): 9.00 to 10.00
Emax (GLP-1 receptor [1]; [5]): 99%
pEC50 (GIP receptor [2]): 7.00 to 8.00
Emax (GIP receptor [2]; [6]): 115%
pEC50 (GLP-1 receptor [4]): < 6.00

CC[C@H](C)[C@H](NC(=O)[C@H](CC(C)C)NC(=O)[C@H](Cc1c[nH]c2ccccc12)NC(=O)[C@H](CCC(N)=O)NC(=O)[C@@H](NC(=O)[C@H](Cc1ccccc1)NC(=O)[C@H](C)NC(=O)[C@H](CCCCNC(=O)COCCOCCNC(=O)COCCOCCNC(=O)CC[C@H](NC(=O)CCCCCCCCCCCCCCCCCCC(=O)O)C(=O)O)NC(=O)[C@H](CCC(N)=O)NC(=O)[C@H](C)NC(=O)[C@@H](NC(=O)[C@H](CCCCN)NC(=O)[C@H](CC(=O)O)NC(=O)[C@H](CC(C)C)NC(=O)C(C)(C)NC(=O)[C@@H](NC(=O)[C@H](CO)NC(=O)[C@H](Cc1ccc(O)cc1)NC(=O)[C@H](CC(=O)O)NC(=O)[C@H](CO)NC(=O)[C@@H](NC(=O)[C@H](Cc1ccccc1)NC(=O)[C@@H](NC(=O)CNC(=O)[C@H](CCC(=O)O)NC(=O)CCCNC(=O)CNC(=O)Nc1ccccc1Cl)[C@@H](C)O)[C@@H](C)O)[C@@H](C)CC)[C@@H](C)CC)C(C)C)C(=O)N[C@@H](C)C(=O)NCC(=O)NCC(=O)N1CCC[C@H]1C(=O)N[C@@H](CO)C(=O)N[C@@H](CO)C(=O)NCC(=O)N[C@@H](C)C(=O)N1CCC[C@H]1C(=O)N1CCC[C@H]1C(=O)N1CCC[C@H]1C(=O)N[C@@H](CO)C(N)=O [Compound 259] ({NH(2-ClPh)-CO}-G[GABA]EGTFTSDYSI[Aib]LDKIAQK([AEEA-AEEA-γGlu-C20 diacid])AFVQWLIAGGPSSGAPPPS-NH2; C-terminus assumed)
Emax (GLP-1 receptor [1]; CHO): 103%
Emax (GIP receptor [2]; CHO): 103%

CC[C@H](C)[C@H](NC(=O)[C@H](CC(C)C)NC(=O)[C@H](Cc1c[nH]c2ccccc12)NC(=O)[C@H](CCC(N)=O)NC(=O)[C@@H](NC(=O)[C@H](Cc1ccccc1)NC(=O)[C@H](C)NC(=O)[C@H](CCCCNC(=O)COCCOCCNC(=O)COCCOCCNC(=O)CC[C@H](NC(=O)CCCCCCCCCCCCCCCCCCC(=O)O)C(=O)O)NC(=O)[C@H](CCC(N)=O)NC(=O)[C@H](C)NC(=O)[C@@H](NC(=O)[C@H](CCCCN)NC(=O)[C@H](CC(=O)O)NC(=O)[C@H](CC(C)C)NC(=O)C(C)(C)NC(=O)[C@@H](NC(=O)[C@H](CO)NC(=O)[C@H](Cc1ccc(O)cc1)NC(=O)[C@H](CC(=O)O)NC(=O)[C@H](CO)NC(=O)[C@@H](NC(=O)[C@H](Cc1ccccc1)NC(=O)[C@@H](NC(=O)CNC(=O)[C@H](CCC(=O)O)NC(=O)CCCNC(=O)CNC(=O)Nc1cccc(F)c1)[C@@H](C)O)[C@@H](C)O)[C@@H](C)CC)[C@@H](C)CC)C(C)C)C(=O)N[C@@H](C)C(=O)NCC(=O)NCC(=O)N1CCC[C@H]1C(=O)N[C@@H](CO)C(=O)N[C@@H](CO)C(=O)NCC(=O)N[C@@H](C)C(=O)N1CCC[C@H]1C(=O)N1CCC[C@H]1C(=O)N1CCC[C@H]1C(=O)N[C@@H](CO)C(N)=O [Compound 260] ({X12-CO}-G[GABA]EGTFTSDYSI[Aib]LDKIAQK([AEEA-AEEA-γGlu-C20 diacid])AFVQWLIAGGPSSGAPPPS-NH2; C-terminus assumed)
Emax (GLP-1 receptor [1]; [5]): 124%
Emax (GIP receptor [2]; [6]): 107%

CC[C@H](C)[C@H](NC(=O)[C@H](CC(C)C)NC(=O)[C@H](Cc1c[nH]c2ccccc12)NC(=O)[C@H](CCC(N)=O)NC(=O)[C@@H](NC(=O)[C@H](Cc1ccccc1)NC(=O)[C@H](C)NC(=O)[C@H](CCCCNC(=O)COCCOCCNC(=O)COCCOCCNC(=O)CC[C@H](NC(=O)CCCCCCCCCCCCCCCCCCC(=O)O)C(=O)O)NC(=O)[C@H](CCC(N)=O)NC(=O)[C@H](C)NC(=O)[C@@H](NC(=O)[C@H](CCCCN)NC(=O)[C@H](CC(=O)O)NC(=O)[C@H](CC(C)C)NC(=O)C(C)(C)NC(=O)[C@@H](NC(=O)[C@H](CO)NC(=O)[C@H](Cc1ccc(O)cc1)NC(=O)[C@H](CC(=O)O)NC(=O)[C@H](CO)NC(=O)[C@@H](NC(=O)[C@H](Cc1ccccc1)NC(=O)[C@@H](NC(=O)CNC(=O)[C@H](CCC(=O)O)NC(=O)CCCNC(=O)CNC(=O)Nc1cccc(OC)c1)[C@@H](C)O)[C@@H](C)O)[C@@H](C)CC)[C@@H](C)CC)C(C)C)C(=O)N[C@@H](C)C(=O)NCC(=O)NCC(=O)N1CCC[C@H]1C(=O)N[C@@H](CO)C(=O)N[C@@H](CO)C(=O)NCC(=O)N[C@@H](C)C(=O)N1CCC[C@H]1C(=O)N1CCC[C@H]1C(=O)N1CCC[C@H]1C(=O)N[C@@H](CO)C(N)=O [Compound 261] ({NH(3-MeOPh)-CO}-G[GABA]EGTFTSDYSI[Aib]LDKIAQK([AEEA-AEEA-γGlu-C20 diacid])AFVQWLIAGGPSSGAPPPS-NH2; C-terminus assumed)
Emax (GLP-1 receptor [1]; [5]): 106%
Emax (GIP receptor [2]; [6]): 107%

CC[C@H](C)[C@H](NC(=O)[C@H](CC(C)C)NC(=O)[C@H](Cc1c[nH]c2ccccc12)NC(=O)[C@H](CCC(N)=O)NC(=O)[C@@H](NC(=O)[C@H](Cc1ccccc1)NC(=O)[C@H](C)NC(=O)[C@H](CCCCNC(=O)COCCOCCNC(=O)COCCOCCNC(=O)CC[C@H](NC(=O)CCCCCCCCCCCCCCCCCCC(=O)O)C(=O)O)NC(=O)[C@H](CCC(N)=O)NC(=O)[C@H](C)NC(=O)[C@@H](NC(=O)[C@H](CCCCN)NC(=O)[C@H](CC(=O)O)NC(=O)[C@H](CC(C)C)NC(=O)C(C)(C)NC(=O)[C@@H](NC(=O)[C@H](CO)NC(=O)[C@H](Cc1ccc(O)cc1)NC(=O)[C@H](CC(=O)O)NC(=O)[C@H](CO)NC(=O)[C@@H](NC(=O)[C@H](Cc1ccccc1)NC(=O)[C@@H](NC(=O)CNC(=O)[C@H](CCC(=O)O)NC(=O)CCCNC(=O)CNC(=O)Nc1cccc(Cl)c1Cl)[C@@H](C)O)[C@@H](C)O)[C@@H](C)CC)[C@@H](C)CC)C(C)C)C(=O)N[C@@H](C)C(=O)NCC(=O)NCC(=O)N1CCC[C@H]1C(=O)N[C@@H](CO)C(=O)N[C@@H](CO)C(=O)NCC(=O)N[C@@H](C)C(=O)N1CCC[C@H]1C(=O)N1CCC[C@H]1C(=O)N1CCC[C@H]1C(=O)N[C@@H](CO)C(N)=O [Compound 262] ({X10-CO}-G[GABA]EGTFTSDYSI[Aib]LDKIAQK([AEEA-AEEA-γGlu-C20 diacid])AFVQWLIAGGPSSGAPPPS-NH2; C-terminus assumed)
Emax (GLP-1 receptor [1]; CHO): 90%
Emax (GIP receptor [2]; CHO): 106%
